Test results from PubChem BioAssay AID2060907 (Molecular Pharmacology Branch, DTP, NCI, 2025).

Test system: 388556-164-R-J1-PDC complex spheroid viability
Test: Anticancer human tumor 388556-164-R-J1-PDC patient-derived colon adenocarcinoma cell line growth inhibition [RAS]
Details: for IC50: curve of first compound; for viability, T/C: stronger effect = lower value
Summary of the method: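 Multi-cell-type spheroids: tumor cells plus HUVEC endothelial cells and mesenchymal stem cells. RAS-pathway inhibitors were combined with targeted agents, each dosed in half-log steps down from clinical Cmax, or from 10 microM when Cmax was unknown.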

[1] = second compound 0.00316 µM, first compound 0.0316 µM
[2] = second compound 0.00316 µM, first compound 0.1 µM
[3] = second compound 0.00316 µM, first compound 0.316 µM
[4] = second compound 0.00316 µM, first compound 1 µM
[5] = second compound 0.01 µM, first compound 0.0316 µM
[6] = second compound 0.01 µM, first compound 0.1 µM
[7] = second compound 0.01 µM, first compound 0.316 µM
[8] = second compound 0.01 µM, first compound 1 µM
[9] = second compound 0.0316 µM, first compound 0.0316 µM
[10] = second compound 0.0316 µM, first compound 0.1 µM
[11] = second compound 0.0316 µM, first compound 0.316 µM
[12] = second compound 0.0316 µM, first compound 1 µM
[13] = second compound 0.1 µM, first compound 0.0316 µM
[14] = second compound 0.1 µM, first compound 0.1 µM
[15] = second compound 0.1 µM, first compound 0.316 µM
[16] = second compound 0.1 µM, first compound 1 µM
[17] = second compound 0.316 µM, first compound 0.0316 µM
[18] = second compound 0.316 µM, first compound 0.1 µM
[19] = second compound 0.316 µM, first compound 0.316 µM
[20] = second compound 0.316 µM, first compound 1 µM
[21] = second compound 1 µM, first compound 0.0316 µM
[22] = second compound 1 µM, first compound 0.1 µM
[23] = second compound 1 µM, first compound 0.316 µM
[24] = second compound 1 µM, first compound 1 µM
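Also: spheroids exposed to compound for 7 days before readout.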
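For viability, T/C in this document: 100% = DMSO vehicle control luminescence.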

CCN1CCN(Cc2ccc(Nc3ncc(F)c(-c4cc(F)c5nc(C)n(C(C)C)c5c4)n3)nc2)CC1 + C=CC(=O)N1CCN(c2nc(OCC3CCCN3C)nc3c(F)c(-c4nc(N)cc(C)c4C(F)(F)F)c(Cl)cc23)C(C)C1
IC50 (second compound 0.00316 µM): > 1 µM | IC50 (second compound 0.01 µM): > 1 µM | IC50 (second compound 0.0316 µM): > 1 µM | IC50 (second compound 0.1 µM): > 1 µM | IC50 (second compound 0.316 µM): > 1 µM | IC50 (second compound 1 µM): > 1 µM | viability, T/C (second compound 0.00316 µM, first compound 0.00316 µM): 111% | viability, T/C (second compound 0.00316 µM, first compound 0.01 µM): 104% | viability, T/C [1]: 93.1% | viability, T/C [2]: 88.8% | viability, T/C [3]: 104% | viability, T/C [4]: 98.3% | viability, T/C (second compound 0.01 µM, first compound 0.00316 µM): 97.5% | viability, T/C (second compound 0.01 µM, first compound 0.01 µM): 101% | viability, T/C [5]: 93% | viability, T/C [6]: 95.6% | viability, T/C [7]: 96.2% | viability, T/C [8]: 89.4% | viability, T/C (second compound 0.0316 µM, first compound 0.00316 µM): 100% | viability, T/C (second compound 0.0316 µM, first compound 0.01 µM): 101% | viability, T/C [9]: 95.4% | viability, T/C [10]: 93% | viability, T/C [11]: 98.3% | viability, T/C [12]: 87.8% | viability, T/C (second compound 0.1 µM, first compound 0.00316 µM): 106% | viability, T/C (second compound 0.1 µM, first compound 0.01 µM): 105% | viability, T/C [13]: 90.3% | viability, T/C [14]: 88.9% | viability, T/C [15]: 91.5% | viability, T/C [16]: 84.5% | viability, T/C (second compound 0.316 µM, first compound 0.00316 µM): 105% | viability, T/C (second compound 0.316 µM, first compound 0.01 µM): 100% | viability, T/C [17]: 98.2% | viability, T/C [18]: 89.7% | viability, T/C [19]: 91.8% | viability, T/C [20]: 84.3% | viability, T/C (second compound 1 µM, first compound 0.00316 µM): 102% | viability, T/C (second compound 1 µM, first compound 0.01 µM): 104% | viability, T/C [21]: 100% | viability, T/C [22]: 93% | viability, T/C [23]: 79.7% | viability, T/C [24]: 94%

C[C@@H](NC(=O)c1ncnc(N)c1Cl)c1ncc(C(=O)Nc2cc(C(F)(F)F)c(Cl)cn2)s1 + C=CC(=O)N1CCN(c2nc(OCC3CCCN3C)nc3c(F)c(-c4nc(N)cc(C)c4C(F)(F)F)c(Cl)cc23)C(C)C1
IC50 (second compound 0.00316 µM): > 10 µM | IC50 (second compound 0.01 µM): > 10 µM | IC50 (second compound 0.0316 µM): > 10 µM | IC50 (second compound 0.1 µM): > 10 µM | IC50 (second compound 0.316 µM): > 10 µM | IC50 (second compound 1 µM): > 10 µM | viability, T/C [1]: 111% | viability, T/C [2]: 114% | viability, T/C [3]: 133% | viability, T/C [4]: 111% | viability, T/C (second compound 0.00316 µM, first compound 3.16 µM): 112% | viability, T/C (second compound 0.00316 µM, first compound 10 µM): 104% | viability, T/C [5]: 111% | viability, T/C [6]: 115% | viability, T/C [7]: 121% | viability, T/C [8]: 114% | viability, T/C (second compound 0.01 µM, first compound 3.16 µM): 119% | viability, T/C (second compound 0.01 µM, first compound 10 µM): 98.4% | viability, T/C [9]: 111% | viability, T/C [10]: 118% | viability, T/C [11]: 116% | viability, T/C [12]: 117% | viability, T/C (second compound 0.0316 µM, first compound 3.16 µM): 128% | viability, T/C (second compound 0.0316 µM, first compound 10 µM): 101% | viability, T/C [13]: 109% | viability, T/C [14]: 109% | viability, T/C [15]: 110% | viability, T/C [16]: 117% | viability, T/C (second compound 0.1 µM, first compound 3.16 µM): 117% | viability, T/C (second compound 0.1 µM, first compound 10 µM): 91.8% | viability, T/C [17]: 126% | viability, T/C [18]: 122% | viability, T/C [19]: 113% | viability, T/C [20]: 125% | viability, T/C (second compound 0.316 µM, first compound 3.16 µM): 122% | viability, T/C (second compound 0.316 µM, first compound 10 µM): 97.1% | viability, T/C [21]: 119% | viability, T/C [22]: 116% | viability, T/C [23]: 127% | viability, T/C [24]: 133% | viability, T/C (second compound 1 µM, first compound 3.16 µM): 119% | viability, T/C (second compound 1 µM, first compound 10 µM): 97.7%
